Assay [1] deals with B6 mice fed with high fat feed (fatty liver). The assay is described as follows: Serum ALT and AST (liver dysfunction) in mice with induced fatty liver. The class given is in vivo. As for the experimental part: (§1) B6 mice recommended in the specification “Method for evaluating the liver protection and health care efficacies of health food” announced by the Department of Health were chosen for animal testing. More than four (4) mice were used in each group of the pre-test, while more than twelve (12) mice were used in each group of the confirmatory test. Male mice bred at 23±2° C. in an animal room with 55±15% relative humidity under normal light/dark cycle (7:00 AM-7:00 PM lights on/7:00 PM-7:00 AM lights off) and weighing 18-23 g were purchased from BioLASCO (Taipei) and housed at Laboratory Animal Center in National Defense Medical Center. The animal test was carried out according to the guideline for animal experiment of National Health Research Institutes. Mice were fed with normal feed at 3-5 g/day and unlimited supply of water for 1-2 weeks and investigated for health condition. The weight of mice was recorded once a week.
(§2) The tested animals were grouped randomly into Blank, High Fat Diet control (HFD), Positive Control (PS), and Test group. The animals of Blank were fed with normal feed. The animals of HFD were fed with high fat feed. The animals of PS were fed with high fat feed, and additionally fed with silymarin (5 mg/kg/day) by a tube. The animals of Test group were fed with high fat feed, and additionally force-fed with test compounds by a tube.
(§3) The animals of Blank were fed casually with normal feed for 12 weeks, while the animals of HFD, PS, and Test group were fed casually with high fat feed for 12 weeks. After 8 weeks of feeding, the animals of Blank and HFD were fed with deionized water by a tube once a day; the animals of PS were fed with silymarin by a tube once a day; and the animals of Test Group were fed with test compounds by a tube once a day for a duration of 4 or 8 weeks.
Before testing and in the eighth (8th), twelfth (12th), and sixteenth (16th) week after testing, blood was collected from the cheek or the heart. At the end of testing, all mice were weighted and then sacrificed, and blood was collected from the cheek or the heart simultaneously. The blood specimens of mice was placed at room temperature for one hour to clot, and then the serum was separated by centrifugation in a refrigeration centrifuge at 15,700×g at 4° C. for 5 minutes. Afterwards, biochemical indices of liver function, including aspartate transaminase (AST), alanine aminotransferase (ALT), triglyceride (TG), total cholesterol (TCHO/TC), low-density lipoprotein cholesterol (LDL-C), and high-density lipoprotein cholesterol (HDL-C), were detected by the automatic blood biochemistry analyzer.

The test system of assay [2] is HepG2 fatty liver cells (induced with oleic acid). The assay can be described thus: Reduction of TG content in oleic acid-induced HepG2 fatty liver cells. The class given is cell-based, human. To be noted: Homo sapiens, 72 h; tested substances 1.0 uM, fatty liver cells from HepG2; read-out: TG reduction rate. On the procedure:
The activity of the various compounds of the present invention in reduction of fat content was analyzed by using human hepatoma cell line Hep G2.
HepG2 cell lines (15×10^6 cells) were cultured in DMEM culture No. B, incubated in an incubator with 5% CO2 at 37° C. for 24 hours, cultured in DMEM culture No. C (serum-free medium) for 24 hours, and finally cultured in DMEM culture No. D (containing oleate/albumin complex) for another 48 hours to induce HepG2 cell lines to form fatty liver cells.
HepG2 cell lines were divided into six groups, including: (1) Blank: no treatment; (2) DMSO group: cells from Blank were treated with dimethyl sulfoxide (DMSO); (3) Control: induction with oleic acid to form fatty liver cells; (4) Vehicle group: fatty liver cells formed by induction with oleic acid were treated with DMSO; (5) Positive control: fatty liver cells were treated with silymarin; and (6) Test Group: fatty liver cells were treated with various compounds of the present invention.
After incubation for 72 hours, the treated cells from each group were successively washed twice with PBS, and then incubated with 0.5 ml of trypsin/EDTA for 3 minutes. Afterwards, the cells were scraped with 2 ml of PBS and then transferred to the centrifuge tube to be shattered by ultrasonic. 20 μl of the cell extracts was taken to determine the content of protein. TG determination was performed using commercially available combination of agents (Randox). The TG content obtained above was divided by the protein content to obtain a ratio, representing a relative TG content in the cells.
The equation for calculating reduction rate (%) of TG was as follows: [1−(TG content of Test Group−TG content of Blank)/(TG content of Oleic acid induction Group−TG content of Blank)]×100%.

Assay [3] relates to B6 mice fed with high fat feed (fatty liver). The assay can be described thus: Liver histopathology (H&E) and NAS score in mice with induced fatty liver. Particulars: for large vesicular fat droplets within liver cells in liver tissue section: H&E sections, treatment for 4 weeks (FIG. 1); for effect on liver damages (NAS, in words): fatty liver mice. The class given is in vivo. As for the experimental part:
as §1, §2, §3
At the end of the test, all mice were sacrificed. One tissue block with a volume of approximately 1 cm^3 was cut from the largest right lobe of liver, fixed in 10% neutral formalin, and then dehydrated and hyalinized in various concentrations of ethanol (30, 50, 70, 95, 99.5%) and xylene. Afterwards, xylene was replaced with hot paraffin solution. At last, the tissue was embedded with paraffin solution. The finished paraffin specimen was cut into 5 pun-thickness paraffin sections by the microtome. The sections were pasted on clean slides, dried at 37° C., and then stained by H&E staining.
Liver tissue sections were deparaffinized in xylene for 30 minutes, and then successively rehydrated in 99.5%, 95%, 70%, 50%, and 30% ethanol for 30 minutes, respectively. After being soaked in distilled water for 10 minutes, the sections could be stained. The sections were first immersed in hematoxylin for 30 seconds to stain cell nuclei, then washed with distilled water for a few minutes, stained with eosin for 2-5 minutes, and washed with distilled water for a few minutes again. […]
In order to observe the changes of lesion, fat accumulation, necrosis, or fibrosis in liver cells when there was an ongoing liver damage, liver tissues were H&E stained to evaluate the degree of liver fat accumulation. […] As for the assessment of semi-quantitative analysis in pathology, it had to be confirmed by a physician or a veterinary pathologist who conducted a double-blind analysis to score (NAS score)^16 and compare all the sections without knowing the test design. […]

Assay [4] shares this test system. The assay can be described thus: Liver lipids (TG, TC in liver) in mice with induced fatty liver. The class given is in vivo. On the procedure:
as §1, §2, §3
In addition, abdominal fat and liver specimens were taken from the abdomens of sacrificed mice and weighted to compare the weight of fat and liver and obtain a ratio of liver weight to body weight. Two tissue blocks with a volume of approximately 1 cm^3 were cut from the largest right lobe of liver, fixed in 10% neutral formalin solution, and then embedded with paraffin for sectioning and H&E staining for histopathological observation. Moreover, the rest of the liver was frozen for preservation and detection of the contents of triglyceride and total cholesterol in the liver. Furthermore, the liver function of animals of each group were analyzed by Galactose Single Point Method, which was recognized and recommended for quantification of remaining liver function in clinical use by U.S. FDA and Ministry of Health and Welfare, Taiwan. At the end of the tests, 0.5 g of galactose (G.S.P.® 0.4 g/mL) per kg of animal was administered via intravenous. One hour after the administration, about 0.5 ml of whole blood was taken by using a filter paper to evaluate liver function of mice. The higher the value of GSP was, the worse the remaining liver function would be (FDA: “Guidance for Industry: Pharmacokinetics in Patients with Impaired. Hepatic Function—Study Design, Data Analysis and Impact on Dosing and. Labeling. 2003).

Assay [5] has the same test system. The assay is described as follows: Liver antioxidant capacity (Gpx, GSH, Grd, SOD) in mice with induced fatty liver. To be noted: for effect on liver antioxidant activity (in words): fatty liver mice. It is filed as in vivo. On the procedure: as §1, §2, §3
About 0.1 g of liver tissue was taken from the sacrificed animal and homogenized by centrifuge with a biomasher for 10 minutes. A 9-fold weight (w/w) of buffer (pH 7.4, 50 mmol/L Tris-HCl, 180 mmol/L KCl) was added to the homogenized tissue, which was then mixed well by a Vortex mixer for subsequent use. The resulting homogenization solution samples of liver tissue was used for the analysis of various members of liver antioxidant systems, including glutathione peroxidase (GPx), glutathione (GSH), glutathione reductase (Grd), and superoxide dismutase (SOD). Methods of related analysis can be found in the known literatures, for example, the draft of “Method for evaluating the liver protection and health care efficacies of health food” announced by the Ministry of Health and Welfare, Taiwan.

The nature of assay [6]: Abdominal fat weight, liver weight and increase of body weight in high fat feed mice. Particulars: fatty liver mice. It is filed as in vivo, B6 mice. On the procedure:
as §1, §2
The animals of Blank were fed casually with normal feed for 12 weeks, while the animals of HFD, PS, and Test group were fed casually with high fat feed for 12 weeks. […]
In addition, abdominal fat and liver specimens were taken from the abdomens of sacrificed mice and weighted to compare the weight of fat and liver and obtain a ratio of liver weight to body weight. […] Furthermore, the liver function of animals of each group were analyzed by Galactose Single Point Method, which was recognized and recommended for quantification of remaining liver function in clinical use by U.S. FDA and Ministry of Health and Welfare, Taiwan. […]

As to `O=C1C[C@@H](c2ccc(O)c(O)c2)Oc2cc(O)cc(O)c21` [eriodictyol], in assay [1], the “effect on ALT and AST values (in words)” value is “can significantly reduce ALT and AST values”. For the same compound, the inhibition at 1 µM in assay [2] was found to be 35.1 ± 0.87%. In assay [3], the “large vesicular fat droplets within liver cells in liver tissue section” value was “significantly reduced” and the “effect on liver damages (NAS, in words)” value was “can significantly reduce liver damages”. In addition, in assay [4], the “effect on TC in liver (in words)” value was “reduces TC in liver significantly” and the “effect on TG in liver (in words)” value is reported as “reduces TG in liver significantly”. For the same compound, the “effect on liver antioxidant activity (in words)” value in assay [5] is recorded as “can significantly enhance antioxidant activity”.
Turning to `COc1ccc([C@@H]2CC(=O)c3c(O)cc(O)cc3O2)cc1O` [hesperitin], the “effect on ALT and AST values (in words)” value in assay [1] was “can significantly reduce ALT and AST values”. In addition, the inhibition at 1 µM in assay [2] is 16.1 ± 5.55%. For the same compound, in assay [4], the “effect on TC in liver (in words)” value is given as “reduces TC in liver significantly” and the “effect on TG in liver (in words)” value is “reduces TG in liver significantly”. The “effect on liver antioxidant activity (in words)” value in assay [5] is on record as “can significantly enhance antioxidant activity”.
On to `OC[C@@H](O)[C@@H](O)[C@H](O)[C@H](O)CO` [mannitol], for which the “effect on ALT and AST values (in words)” value in assay [1] was “can significantly reduce ALT and AST values”. Also, the inhibition at 1 µM in assay [2] was found to be 22.4 ± 5.74%. Besides, in assay [3], the “large vesicular fat droplets within liver cells in liver tissue section” value is recorded as “significantly reduced” and the “effect on liver damages (NAS, in words)” value is reported as “can significantly reduce liver damages”. Further, the “effect on weight of abdominal fat (in words)” value (shortened to “effect on weight”) in assay [6] was “reduces the weight of abdominal fat in animals significantly”. In assay [4], the “effect on TC in liver (in words)” value was “reduces TC in liver significantly” and the “effect on TG in liver (in words)” value was “reduces TG in liver significantly”. Besides, in assay [5] (4-week treatment), the “Gpx, GSH, Grd, and SOD levels (in words)” value was “substantial increases”. Besides, the “effect on liver antioxidant activity (in words)” value in assay [5] is “can significantly enhance antioxidant activity”.
For the compound `CC1CCC(C(C)C)C(O)C1` (stereo not drawn) [menthol], in assay [1], the “effect on ALT and AST values (in words)” value was “can significantly reduce ALT and AST values”. Also, in assay [2], the inhibition at 1 µM is 66.2 ± 1.87%. In addition, in assay [3], the “large vesicular fat droplets within liver cells in liver tissue section” value is reported as “significantly reduced”. Besides, in assay [6], the “effect on weight” value is listed as “reduces the weight of abdominal fat in animals significantly”. Moreover, in assay [4], the “effect on TC in liver (in words)” value is “reduces TC in liver significantly” and the “effect on TG in liver (in words)” value was “reduces TG in liver significantly”.
For the compound `O=c1c(-c2ccc(O)cc2)coc2c([C@@H]3O[C@H](CO)[C@@H](O)[C@H](O)[C@H]3O)c(O)ccc12` [puerarin], the “effect on ALT and AST values (in words)” value in assay [1] is “can significantly reduce ALT and AST values”. Besides, the inhibition at 1 µM in assay [2] stood at 49.9 ± 7.73%. Also, the “effect on TG in liver (in words)” value in assay [4] is reported as “reduces TG in liver significantly”. Further, in assay [5], the “effect on liver antioxidant activity (in words)” value is “can significantly enhance antioxidant activity”.
For the compound `O=C1NS(=O)(=O)c2ccccc21` [saccharin], in assay [1], the “effect on ALT and AST values (in words)” value was “can significantly reduce ALT and AST values”. The inhibition at 1 µM in assay [2] worked out at 17.5 ± 6.96%. For the same compound, in assay [4], the “effect on TC in liver (in words)” value is “reduces TC in liver significantly”.
As for `OC[C@H]1O[C@H](O[C@]2(CCl)O[C@H](CCl)[C@@H](O)[C@@H]2O)[C@H](O)[C@@H](O)[C@H]1Cl` [sucralose], the “effect on ALT and AST values (in words)” value in assay [1] is “can significantly reduce ALT and AST values”. In addition, the inhibition at 1 µM in assay [2] was found to be 26.7 ± 2.93%. In addition, the “effect on weight” value in assay [6] is recorded as “reduces the weight of abdominal fat in animals significantly”. Further, in assay [4], the “effect on TC in liver (in words)” value is “reduces TC in liver significantly” and the “effect on TG in liver (in words)” value is “reduces TG in liver significantly”.

(Values after patent US10925854B2, “Methods and compositions for preventing or treating fatty liver, protecting liver function or ameliorating liver diseases caused by fatty liver or other associated disorders” (SINEW PHARMA INC., priority 2015, dated 2021).)
